# Tests used:
# [1] = molecular target: T1, recombinant WT ezrin protein (Mus musculus, UniProt P26040); experiment: SPR direct binding to immobilized recombinant WT ezrin (Biacore); settings: 5 independent experiments
# T1 construct: full-length recombinant ezrin protein was expressed in bacteria; made in house; host or cells: E. coli M15pREP4 (pQE16 vector)
# Protocol: FIG. 7 provides results illustrating the functional activity of select compounds of the present invention on ezrin protein. The chemical structure of the embodied compounds is detailed and the corresponding binding and viability values are listed. The binding potential of select compounds to ezrin was analyzed by using SPR. Recombinant WT ezrin was immobilized onto a Biacore CM5 sensorchip and compounds were injected one-at-a-time at 6 different concentrations. SPR sensograms and KD values were determined using Biacore software. […] The viability and growth inhibition activity of select compounds were determined by treatment of high ezrin expressed K7M2 and low ezrin expressed K12 osteosarcoma cells with a dose range of the select compound for 24 hours. […]
# Compounds for initial screening were acquired from 4 libraries (Challenge Set, Diversity Set, Mechanistic Set and Natural Product Set) of the Developmental Therapeutics Program, National Cancer Institute. Their direct ezrin binding potential was analyzed by using Biacore T100 v2.0.3 instrument (GE Healthcare, Piscataway N.J.). […] Existing interactions are measured based on total mass change on the chip surface. Recombinant WT ezrin protein was used as the ligand and immobilized on to a Biacore CM5 sensorchip and compounds were injected one at a time as the binding interactions were recorded. […]
# [2] = test system: PKC,τ, PKC,α and PKC,γ; experiment: Radioactive in vitro kinase assay of PKC isoforms with nonspecific substrate; format: biochemical
# Protocol: FIG. 2 illustrates NSC305787 and NSC668394 inhibit ezrin T567 phosphorylation. (A) K7M2 metastatic OS cell line was treated with NSC305787 (10 μM) and NSC668394 (10 μM) for 6 hours. […] The effect of NSC305787 and NSC668394 on recombinant ezrin phosphorylation by recombinant PKC, was tested in an in vitro kinase assay. Phoshorylation of ezrin was detected by a phosphospecific antibody following PAGE and immunoblotting. Experiments were repeated three times and densitometric analysis of bands was used for calculation of % inhibition (graphs). Error bars represents s.d. from three independent experiments. Kinase activities of PKC,τ, PKC,α and PKC,γ were also evaluated with a nonspecific substrate in the presence of NSC305787 and NSC668394 by a radioactive in vitro kinase assay. Data analysis was done by using a sigmoidal dose-response equation where log EC50 for each curve with the ezrin substrate and the non-specific substrate were compared to each other (P=0.0118 for NSC305787 and P=0.0084 for NSC668394).
# 500 ng of recombinant ezrin protein in kinase assay mix (200 μM ATP) was incubated with the compounds at 1-100 μM concentrations for 15 minutes on ice, then 50 ng PKC,τ (Millipore, Billerica, Mass.) was added. Reaction was performed at 30° C. for 30 min and stopped by adding 2× sample buffer. […]
# [3] = test system: K7M2 cells; experiment: Invasion of HUVEC monolayer by K7M2 cells (ECIS, xCELLigence); format: cell-based; settings: 1 μM and 10 μM, vs control 1% DMSO
# Protocol: FIG. 3 illustrates NSC305787 and NSC668394 inhibit ezrin mediated invasion of OS cells. (A) Endogenous ezrin protein levels in K12 and K7M2 cells are shown. Equal loading is determined by blotting with an actin antibody. […] Error bars represent standard deviation from duplicate data points. The experiments were performed in duplicates. Cell index is a measurement parameter with no units. In this assay a decrease in cell index represents invasion of HUVEC layer by OS cells. It is measured according to the following formula: Cell index=((Rt−R0)/F where, Rt is resistance at time point t, R0 is background resistance (measured with media alone, no cells), and F is frequency at which measurement is taken (10 kHz).
# The anti-invasive potential of NSC305787 and NSC668394 were evaluated by using electric cell impedance sensing (ECIS) on a Roche xCELLigence system (Roche, Indianapolis, Ind.). Briefly, HUVEC cells (25,000/well) were seeded in a 96-well plate in EGM-2 media (Lonza, Basel, CH). Following formation of a confluent HUVEC monolayer (app 32 hrs), EGM-2 media was aspirated and a layer of OS cells (10,000 cells/well) was added in DMEM media containing the compounds. This time point was accepted as 0 hr of treatment and invasion was monitored during the following 6 hrs by measuring changes in resistance at the cell-electrode interphase.
# [4] = test system: K7M2, K12 and HUVEC cells; experiment: Toxicity to cells at invasion assay concentrations; format: cell-based; settings: 1 μM and 10 μM; data not shown
# Protocol: Chemotaxis experiments were performed in 96 well Boyden chamber as described previously (Chen, K., et al., Pediatr. Blood Cancer, 51, 349-355 (2008)). To measure effect of compounds on cellular toxicity, WST viability assay (Roche, Indianapolis, Ind.) was performed in parallel to chemotaxis experiments.
# T1 sequence (P26040 whole entry): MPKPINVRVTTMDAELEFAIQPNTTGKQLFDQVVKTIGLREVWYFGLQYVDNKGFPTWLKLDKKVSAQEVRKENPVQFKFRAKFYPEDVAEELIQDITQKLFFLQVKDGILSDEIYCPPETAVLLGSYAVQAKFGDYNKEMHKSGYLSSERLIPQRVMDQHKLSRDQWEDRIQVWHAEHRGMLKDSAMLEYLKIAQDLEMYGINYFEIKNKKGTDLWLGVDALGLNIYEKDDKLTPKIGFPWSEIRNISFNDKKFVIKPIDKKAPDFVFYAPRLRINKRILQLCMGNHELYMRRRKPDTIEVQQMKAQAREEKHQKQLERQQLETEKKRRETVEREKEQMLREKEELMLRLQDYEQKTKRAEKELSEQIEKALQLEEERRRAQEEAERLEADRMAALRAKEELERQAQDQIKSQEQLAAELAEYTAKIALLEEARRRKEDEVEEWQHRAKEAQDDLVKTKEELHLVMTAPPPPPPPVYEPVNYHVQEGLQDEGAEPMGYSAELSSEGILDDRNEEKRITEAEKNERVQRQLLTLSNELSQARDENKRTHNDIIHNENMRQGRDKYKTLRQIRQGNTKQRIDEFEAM
compound,measurement,setting,value
OC(c1cc(C23CC4CC(CC(C4)C2)C3)nc2c(Cl)cc(Cl)cc12)C1CCCCN1 (centres unmarked) [NSC305787],Kd,[1],5.85 µM
same,concentration to inhibit all three PKC isoforms,[2]; nonspecific substrate,~50 µM
same,fold higher concentration to inhibit PKC isoforms than to inhibit ezrin phosphorylation,[2]; nonspecific substrate vs ezrin substrate,10 fold
same,invasion of K7M2 cells through HUVEC monolayer,[3],inhibited invasion
same,"toxicity to K7M2, K12 and HUVEC cells",[4],not toxic

# From US9522908B2, “Ezrin inhibitors and methods of making and using” (Georgetown University, priority 2010, dated 2016)
